Experimental data reported in PubChem BioAssay AID2060623 (Molecular Pharmacology Branch, DTP, NCI, 2025).
“And” between values parts separate entries of the source, which are not always exact repeats. Equal values may be shown once.

Test system: 227483-062-R1-J1-PDC complex spheroids with HUVEC/MSC, viability
Test: Anticancer human tumor 227483-062-R1-J1-PDC patient-derived pancreatic carcinoma cell line growth inhibition [CLK]
Conditions: for viability, T/C: stronger effect = lower value
In short: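 Multi-cell-type spheroids combined patient-derived tumor cells with HUVEC endothelial cells and human mesenchymal stem cells. Paired agents were dosed in half-log steps down from about clinical Cmax, or from 10 microM where Cmax was unknown.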

[1] = curve of first compound, second compound 0.0316 µM
[2] = curve of first compound, second compound 0.1 µM
[3] = curve of first compound, second compound 0.316 µM
[4] = curve of first compound, second compound 1 µM
[5] = curve of first compound, second compound 3.16 µM
[6] = curve of first compound, second compound 10 µM
[7] = second compound 0.0316 µM, first compound 0.0316 µM
[8] = second compound 0.0316 µM, first compound 0.1 µM
[9] = second compound 0.0316 µM, first compound 0.316 µM
[10] = second compound 0.0316 µM, first compound 1 µM
[11] = second compound 0.0316 µM, first compound 3.16 µM
[12] = second compound 0.0316 µM, first compound 10 µM
[13] = second compound 0.1 µM, first compound 0.0316 µM
[14] = second compound 0.1 µM, first compound 0.1 µM
[15] = second compound 0.1 µM, first compound 0.316 µM
[16] = second compound 0.1 µM, first compound 1 µM
[17] = second compound 0.1 µM, first compound 3.16 µM
[18] = second compound 0.1 µM, first compound 10 µM
[19] = second compound 0.316 µM, first compound 0.0316 µM
[20] = second compound 0.316 µM, first compound 0.1 µM
[21] = second compound 0.316 µM, first compound 0.316 µM
[22] = second compound 0.316 µM, first compound 1 µM
[23] = second compound 0.316 µM, first compound 3.16 µM
[24] = second compound 0.316 µM, first compound 10 µM
[25] = second compound 1 µM, first compound 0.0316 µM
[26] = second compound 1 µM, first compound 0.1 µM
[27] = second compound 1 µM, first compound 0.316 µM
[28] = second compound 1 µM, first compound 1 µM
[29] = second compound 1 µM, first compound 3.16 µM
[30] = second compound 1 µM, first compound 10 µM
[31] = second compound 3.16 µM, first compound 0.0316 µM
[32] = second compound 3.16 µM, first compound 0.1 µM
[33] = second compound 3.16 µM, first compound 0.316 µM
[34] = second compound 3.16 µM, first compound 1 µM
[35] = second compound 3.16 µM, first compound 3.16 µM
[36] = second compound 3.16 µM, first compound 10 µM
[37] = second compound 10 µM, first compound 0.0316 µM
[38] = second compound 10 µM, first compound 0.1 µM
[39] = second compound 10 µM, first compound 0.316 µM
[40] = second compound 10 µM, first compound 1 µM
[41] = second compound 10 µM, first compound 3.16 µM
[42] = second compound 10 µM, first compound 10 µM
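Also: spheroids exposed to compounds for seven days before readout.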
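For viability, T/C in this document: percent of DMSO vehicle control luminescence as 100% viability.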

COC1C=CCC(C)C(C)S(=O)(=O)NC(=O)c2ccc3c(c2)N(CC2CCC21)CC1(CCCc2cc(Cl)ccc21)CO3 (stereo not drawn) + CNC(=O)c1ccc(Nc2nc(OC3CCCC3)c3c(-c4ccc5nc(C)oc5c4)c[nH]c3n2)c(OC)c1
IC50 [1]: 6020 nM
IC50 [2]: 3740 nM
IC50 [3]: 897 nM
IC50 [4]: 207 nM
IC50 [5]: 46.2 nM
IC50 [6]: < 31.6 nM
viability, T/C [7]: 84%
viability, T/C [8]: 94.8%
viability, T/C [9]: 106%
viability, T/C [10]: 81.1%
viability, T/C [11]: 88.3%
viability, T/C [12]: 20.1%
viability, T/C [13]: 78.6%
viability, T/C [14]: 88.7%
viability, T/C [15]: 77.4%
viability, T/C [16]: 64.7%
viability, T/C [17]: 59.7%
viability, T/C [18]: 17.8%
viability, T/C [19]: 94%
viability, T/C [20]: 76.3%
viability, T/C [21]: 76.6%
viability, T/C [22]: 43.2%
viability, T/C [23]: 30%
viability, T/C [24]: 14.6%
viability, T/C [25]: 75%
viability, T/C [26]: 58.7%
viability, T/C [27]: 45.9%
viability, T/C [28]: 28%
viability, T/C [29]: 16.7%
viability, T/C [30]: 10.8%
viability, T/C [31]: 54%
viability, T/C [32]: 41.2%
viability, T/C [33]: 33%
viability, T/C [34]: 17.7%
viability, T/C [35]: 9.9%
viability, T/C [36]: 8.25%
viability, T/C [37]: 38.7%
viability, T/C [38]: 34.4%
viability, T/C [39]: 25.8%
viability, T/C [40]: 14.4%
viability, T/C [41]: 9.05%
viability, T/C [42]: 9.22%

C=CC(=O)N1CCN(c2nc(=O)n(-c3c(C)ccnc3C(C)C)c3nc(-c4c(O)cccc4F)c(F)cc23)C(C)C1 (stereo not drawn)
viability, T/C (compound 0.0316 µM): 88.6% and 88%
viability, T/C (compound 0.1 µM): 83.2% and 92.8%
viability, T/C (compound 0.316 µM): 86% and 85.4%
viability, T/C (compound 1 µM): 95.2% and 125%
viability, T/C (compound 3.16 µM): 110% and 104%
viability, T/C (compound 10 µM): 109% and 95.8%
IC50 (curve of compound): > 10000 nM

O=C(c1cc(Cc2n[nH]c(=O)c3ccccc23)ccc1F)N1CCN(C(=O)C2CC2)CC1
viability, T/C (compound 0.0316 µM): 98% and 94.5%
viability, T/C (compound 0.1 µM): 100% and 97.8%
viability, T/C (compound 0.316 µM): 101% and 98.4%
viability, T/C (compound 1 µM): 107% and 99.2%
viability, T/C (compound 3.16 µM): 114% and 91.3%
viability, T/C (compound 10 µM): 91.4% and 100%
IC50 (curve of compound): > 10000 nM

O=c1[nH]cc(F)c(=O)[nH]1 + CN1CCN(c2cc(C(=O)Nc3cc4cc(-c5cnn(C)c5)ccc4cn3)ccn2)CC1
IC50 [1]: 2920 nM
IC50 [2]: 362 nM
IC50 [3]: < 31.6 nM
IC50 [4]: < 31.6 nM
IC50 [5]: < 31.6 nM
IC50 [6]: < 31.6 nM
viability, T/C [7]: 113%
viability, T/C [8]: 117%
viability, T/C [9]: 109%
viability, T/C [10]: 76.9%
viability, T/C [11]: 50.8%
viability, T/C [12]: 31.9%
viability, T/C [13]: 69.3%
viability, T/C [14]: 57.1%
viability, T/C [15]: 58.1%
viability, T/C [16]: 38.1%
viability, T/C [17]: 27.5%
viability, T/C [18]: 20.5%
viability, T/C [19]: 6.26%
viability, T/C [20]: 5.02%
viability, T/C [21]: 5.2%
viability, T/C [22]: 4.61%
viability, T/C [23]: 4.43%
viability, T/C [24]: 3.27%
viability, T/C [25]: 1.65%
viability, T/C [26]: 2.05%
viability, T/C [27]: 5.56%
viability, T/C [28]: 1.25%
viability, T/C [29]: 1.55%
viability, T/C [30]: 1.14%
viability, T/C [31]: 4.69%
viability, T/C [32]: 2.74%
viability, T/C [33]: 3.16%
viability, T/C [34]: 2.23%
viability, T/C [35]: 2.22%
viability, T/C [36]: 2.26%
viability, T/C [37]: 1.91%
viability, T/C [38]: 1.38%
viability, T/C [39]: 1.3%
viability, T/C [40]: 3.91%
viability, T/C [41]: 1.9%
viability, T/C [42]: 2.3%
